Entries after “also recorded” stand apart in the source; their conditions may differ. Where two headings read alike, the source gives them in different places.

The target of experiment [1] is T1, Myeloperoxidase (MPO) (Homo sapiens, UniProt P05164). The following applies: for apparent kcat of MPO for ADHP in presence of inhibitor: Lineweaver-Burk.
Experiment [2] addresses T1, Myeloperoxidase (MPO). The conditions noted are these: MPO 23 nM pre-incubated with inhibitor 1 hr without H2O2, dialysis, then H2O2.
The target of experiment [3] is T1, Myeloperoxidase (MPO). Kind of experiment: MPO fluorescence stopped flow assay. The conditions noted are these: for k−3: same fixed constants; for Akaike weight / ΔAICc: Dynafit 3 model discrimination; for best fitting slow binding inhibition model: Akaike information criterion based discrimination.
In experiment [4] the target is T1, Myeloperoxidase (MPO). Kind of experiment: SDS-PAGE analysis of inhibitor-mediated cleavage of MPO. The conditions noted are these: MPO 1.2 μM, ADHP 40 μM, inhibitor 0-25 mM, H2O2 20 μM, 10 min, room temperature. The format is biochemical.
[5] abbreviates: 1 or 2-step slow tight-binding fit, DynaFit 3.
Where [6] appears, read: 1 or 2-step slow tight-binding fit, DynaFit 3, fixed k+1 = 10 μM^−1s^−1, k−1 = 80 s^−1, k+2 = 224 s^−1, pH 5.6, 25°C.
Setting [7] is: 2-step slow tight-binding fit, DynaFit 3.

T1 sequence (P05164 165-273 limits assumed): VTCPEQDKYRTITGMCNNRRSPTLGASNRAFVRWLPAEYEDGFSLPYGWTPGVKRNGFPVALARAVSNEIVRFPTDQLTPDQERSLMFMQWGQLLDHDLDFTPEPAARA
T1 sequence (P05164 279-745 limits assumed): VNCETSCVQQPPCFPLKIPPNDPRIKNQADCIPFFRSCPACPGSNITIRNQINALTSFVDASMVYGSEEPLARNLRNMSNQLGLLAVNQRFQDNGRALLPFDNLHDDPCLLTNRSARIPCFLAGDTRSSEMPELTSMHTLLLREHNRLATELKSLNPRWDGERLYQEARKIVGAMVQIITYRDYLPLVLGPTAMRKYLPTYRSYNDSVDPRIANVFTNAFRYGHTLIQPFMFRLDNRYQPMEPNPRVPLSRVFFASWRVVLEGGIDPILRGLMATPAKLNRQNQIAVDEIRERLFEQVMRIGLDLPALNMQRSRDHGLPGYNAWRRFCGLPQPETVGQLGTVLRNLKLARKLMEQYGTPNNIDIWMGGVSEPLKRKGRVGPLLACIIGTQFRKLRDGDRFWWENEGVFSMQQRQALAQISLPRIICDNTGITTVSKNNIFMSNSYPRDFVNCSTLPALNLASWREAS

As for `[N-]=[N+]=[N-].[Na+]` [NaN3, sodium azide, reference compound], the “type of inhibition with ADHP” value on Myeloperoxidase (MPO) [1] (Lineweaver-Burk plots, 0, 7.5, 30 μM NaN3) is on record as “competitive inhibition or mixed-type inhibition”. Moreover, the “apparent kcat of MPO for ADHP in presence of inhibitor” value is 161 s⁻¹ on Myeloperoxidase (MPO) [1] (NaN3 7.5 μM) and 108 s⁻¹ on Myeloperoxidase (MPO) [1] (NaN3 30 μM). Besides, on Myeloperoxidase (MPO) [1] (native system versus 30 μM NaN3), the “fold reduction in apparent specificity constant (kcat/Km)” value was determined as 11 fold. Moreover, on Myeloperoxidase (MPO) [2], the “reversibility of inhibitor binding to MPO after equilibrium dialysis” value is reported as “reversible”. Also, the “k−3” value at Myeloperoxidase (MPO) [3] (setting [5]) was 0.156 ± 0.001 s⁻¹. Further, the Akaike weight on Myeloperoxidase (MPO) [3] (1 step model) came to 0.8814; at Myeloperoxidase (MPO) [3] (2 step model), 0.1186. Moreover, the ΔAICc on Myeloperoxidase (MPO) [3] (1 step model) is 0; on Myeloperoxidase (MPO) [3] (2 step model) it was 4.0. Besides, the “best fitting slow binding inhibition model” value on Myeloperoxidase (MPO) [3] is listed as “one-step slow binding inhibition model”. This molecule also gave a Ki on Myeloperoxidase (MPO) [3] (Ki = k−3/k+3, DynaFit 3) of 0.84 µM. For the same molecule, on Myeloperoxidase (MPO) [3] (pH 5.6), the “k+3” value came to 0.185 ± 0.0018 µM⁻¹ s⁻¹.
Take `NNC(=O)c1ccncc1` [Isoniazid, isonicotinylhydrazine, reference compound]: the “k+3” value on Myeloperoxidase (MPO) [3] (setting [6]) turned out to be 0.0011 ± 7.31E-06 μM^−1s^−1. For the same molecule, at Myeloperoxidase (MPO) [3] (setting [5]), the “k−3” value is 0.011 ± 0.0001 s⁻¹. Besides, the Akaike weight at Myeloperoxidase (MPO) [3] (1 step model) is reported as 0.8857; on Myeloperoxidase (MPO) [3] (2 step model) it was 0.1143. The ΔAICc is recorded as 0 at Myeloperoxidase (MPO) [3] (1 step model) and 4.1 at Myeloperoxidase (MPO) [3] (2 step model). The “best fitting slow binding inhibition model” value at Myeloperoxidase (MPO) [3] is given as “one-step slow binding inhibition model”. For the same molecule, the Ki on Myeloperoxidase (MPO) [3] (Ki, Ki = k−3/k+3, DynaFit 3) came out at 10 µM.
In the case of `CC(=O)N1c2ccc(O)cc2Oc2cc(O)ccc21` [ADHP, 10-acetyl-3,7-dihydroxyphenoxazine, reference compound], the kon at Myeloperoxidase (MPO) [3] (read-out: apparent second order rate constant (K^appon)) turned out to be 2100 ± 200 M⁻¹ s⁻¹.
Consider `NNC(=O)c1ccc(C(F)(F)F)cc1` [4-TFMBAH, 4-(trifluoromethyl) benzoic acid hydrazide], for which the “k+3” value at Myeloperoxidase (MPO) [3] (setting [6]) stood at 0.0013 ± 1.36E-05 μM^−1s^−1. The “k−3” value at Myeloperoxidase (MPO) [3] (setting [5]) turned out to be 0.004 ± 0.0002 s⁻¹. The figures for the Akaike weight on Myeloperoxidase (MPO) [3] (1 step model) and on Myeloperoxidase (MPO) [3] (2 step model) were 0.909 and 0.09104, respectively. Further, the ΔAICc at Myeloperoxidase (MPO) [3] (1 step model) is 0; on Myeloperoxidase (MPO) [3] (2 step model), 4.6. Also, on Myeloperoxidase (MPO) [3], the “best fitting slow binding inhibition model” value is reported as “one-step slow binding inhibition model”. This molecule also displayed a Ki at Myeloperoxidase (MPO) [3] (Ki, Ki = k−3/k+3, DynaFit 3) of 3.08 µM.
In the case of `NNC(=O)c1ccc(F)cc1` [4-FBAH, 4-fluorobenzoic acid hydrazide], the “k+3” value on Myeloperoxidase (MPO) [3] (setting [6]) was found to be 0.0075 ± 4.93E-05 μM^−1s^−1. Besides, the “k−3” value at Myeloperoxidase (MPO) [3] (setting [5]) turned out to be 0.0062 ± 0.0001 s⁻¹. For the same molecule, the Akaike weight on Myeloperoxidase (MPO) [3] (1 step model) was found to be 0.9196; on Myeloperoxidase (MPO) [3] (2 step model), 0.0804. Also, the ΔAICc at Myeloperoxidase (MPO) [3] (1 step model) was 0; at Myeloperoxidase (MPO) [3] (2 step model) it was 4.9. The Ki on Myeloperoxidase (MPO) [3] (Ki, Ki = k−3/k+3, DynaFit 3) stood at 0.83 µM.
`NNC(=O)c1ccccc1` [BAH, benzoic acid hydrazide]: on Myeloperoxidase (MPO) [4], the “cleavage of MPO light chain-heme from heavy chain” value was “light chain of MPO is cleaved from MPO”. In addition, on Myeloperoxidase (MPO) [3] (setting [6]), the “k+3” value turned out to be 0.0098 ± 5.47E-05 μM^−1s^−1. Further, the “k−3” value at Myeloperoxidase (MPO) [3] (setting [5]) is 0.0068 ± 9.5E-05 s^−1. At Myeloperoxidase (MPO) [3] (1 step model), the Akaike weight is 0.9969 and the ΔAICc is 0. On Myeloperoxidase (MPO) [3] (2 step model), the Akaike weight was found to be 0.00315 and the ΔAICc is listed as 11.5. Further, on Myeloperoxidase (MPO) [3] (Ki, Ki = k−3/k+3, DynaFit 3), the Ki was 0.69 µM.
For the molecule `CN(C)c1cccc(C(=O)NN)c1` [3-DMABAH, 3-(dimethylamino) benzoic acid hydrazide], the Ki at Myeloperoxidase (MPO) [3] (Ki, Ki = k−3/k+3, DynaFit 3) was determined as 0.56 µM.
With `NNC(=O)c1ccccc1N` [2-ABAH, 2-aminobenzoic acid hydrazide], on Myeloperoxidase (MPO) [3] (setting [6]), the “k+3” value was 0.10 ± 0.0014 µM⁻¹ s⁻¹. For the same molecule, the “k−3” value at Myeloperoxidase (MPO) [3] (setting [5]) was found to be 0.026 ± 0.0003 s⁻¹. In addition, the Akaike weight at Myeloperoxidase (MPO) [3] (1 step model) was determined as 0.01127; at Myeloperoxidase (MPO) [3] (2 step model), 0.9887. Besides, the values for the ΔAICc at Myeloperoxidase (MPO) [3] (1 step model) and at Myeloperoxidase (MPO) [3] (2 step model) were 8.9 and 0, respectively. Moreover, the “k+4” value at Myeloperoxidase (MPO) [3] (setting [7]) worked out at 0.0067 ± 0.0004 s⁻¹. Also, at Myeloperoxidase (MPO) [3] (setting [7]), the “k−4” value came out at 0.0094 ± 0.002 s⁻¹. The “best fitting slow binding inhibition model” value on Myeloperoxidase (MPO) [3] is “two-step slow binding inhibitor; also recorded: two-step mechanism”. The Ki was 0.16 µM on Myeloperoxidase (MPO) [3] (Ki* (overall inhibition constant, two-step model), two-step slow tight-binding model, Eq. 9) and 0.26 µM on Myeloperoxidase (MPO) [3] (Ki, Ki = k−3/k+3, DynaFit 3). Further, at Myeloperoxidase (MPO) [3] (from Ki* versus Ki of isoniazid), the “fold higher affinity inhibitor of Compound I as compared to isoniazid” value amounted to 62 fold.
As to `OO` [H2O2, hydrogen peroxide], the Ki at Myeloperoxidase (MPO) [1] (read-out: apparent inhibitory rate constant Ki (substrate inhibition)) is 0.0108 µM.
For the molecule `NNC(=O)c1ccc([N+](=O)[O-])cc1` [4-NBAH, 4-nitrobenzoic acid hydrazide], the Ki on Myeloperoxidase (MPO) [3] (Ki, Ki = k−3/k+3, DynaFit 3) came out at 3.7 µM.

The values are drawn from publication PMC4336777 (Archives of biochemistry and biophysics, 2014).
